Data published in ChEMBL document CHEMBL1201862, “PubChem BioAssay data set” (2004).
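Following 48 hours of exposure in 96-well plates, responses at five concentrations were used to interpolate endpoints linearly. The concentration for 50% growth inhibition is given as GI50.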 Calls of active or inactive are those of the source. Cut-off read from the data, not from the text of the source: active = GI50 up to about 1.1 µM and inactive = higher.

Assays:
Experiment in all cases: NCI anticancer screen, dose series, 48 h
[1] = tested on: DMS-114
[2] = tested on: KM-20L2
[3] = tested on: RXF 631
[4] = tested on: M19-MEL
[5] = tested on: HOP-18
[6] = tested on: DLD-1
[7] = tested on: T47D
[8] = tested on: LXFL 529

Compound | GI50 [1] | GI50 [2] | GI50 [3] | GI50 [4] | GI50 [5] | GI50 [6] | GI50 [7] | GI50 [8]
C/C(=N\N=C(/S)N1CC2CCC(CC2)C1)c1cccc[n+]1[O-] | 1.35 µM (inactive) | 1.52 µM (inactive) | 3.45 µM (inactive) | 3.58 µM (inactive) | 30.3 µM (inactive) | 2.06 µM (inactive) | 22.6 µM (inactive) | 
Cc1ccccc1N(CCC#N)C1=NN(C(=O)CC(=O)Nc2ccc(Cl)cc2)C(c2ccccc2)C1 (stereo unspecified) | > 100 µM (inactive) | > 100 µM (inactive) | > 100 µM (inactive) | > 100 µM (inactive) | > 100 µM (inactive) | > 100 µM (inactive) |  | > 100 µM (inactive)
Cn1cnc([N+](=O)[O-])c1Sc1nc2cccnc2s1 | 14.7 µM (inactive) | 16.9 µM (inactive) | 14.6 µM (inactive) | 14.9 µM (inactive) |  | 12.8 µM (inactive) |  | 12.4 µM (inactive)
O=c1cccccc1NCCCCNc1cccccc1=O | 31.3 µM (inactive) | > 100 µM (inactive) | > 100 µM (inactive) | 83.2 µM (inactive) | > 100 µM (inactive) | 57.3 µM (inactive) |  | 48.8 µM (inactive)
COC[C@@H](/N=C/N1CCc2cc(OC)c(OC)cc2[C@@H]1C)C(C)(C)C | > 100 µM (inactive) | > 100 µM (inactive) | > 100 µM (inactive) | > 100 µM (inactive) | > 100 µM (inactive) | > 100 µM (inactive) |  | > 100 µM (inactive)
COc1ccc2c(c1)[n+]([O-])c(-c1ccc([N+](=O)[O-])cc1)c(N)[n+]2[O-] | 21.4 µM (inactive) | 49.5 µM (inactive) | > 100 µM (inactive) |  | > 100 µM (inactive) | 63.1 µM (inactive) |  | 39.5 µM (inactive)
Nc1c(Cl)ncnc1NCCCCCCCCCCCCNc1ncnc(Cl)c1N | < 0.01 µM (active) | 7.11 µM (inactive) | 1.94 µM (inactive) | 2.59 µM (inactive) | 5.48 µM (inactive) | 2.73 µM (inactive) |  | 0.218 µM (active)
COC(=O)C(=O)CC(=O)CCn1ncc(Cl)c(Cl)c1=O | 3.15 µM (inactive) | 16.9 µM (inactive) | 8.55 µM (inactive) | 4.01 µM (inactive) |  | 10.3 µM (inactive) |  | 10 µM (inactive)
CC1C(=O)CCC1C(Sc1ccccc1)(Sc1ccccc1)Sc1ccccc1 (stereo unspecified) | 13.8 µM (inactive) |  | 25.9 µM (inactive) | 21.1 µM (inactive) |  | 28.8 µM (inactive) |  | 17.1 µM (inactive)
CC(=O)OC1(C#N)CC2OC1C1NC21 (stereo unspecified) | > 100 µM (inactive) | > 100 µM (inactive) | > 100 µM (inactive) | > 100 µM (inactive) |  | > 100 µM (inactive) |  | > 100 µM (inactive)
CN(C)c1[se]nc2c1c(=O)n(C)c(=O)n2C | > 100 µM (inactive) | > 100 µM (inactive) | > 100 µM (inactive) | > 100 µM (inactive) | 19.4 µM (inactive) | > 100 µM (inactive) |  | > 100 µM (inactive)
O=C(CCc1nnc2s/c(=C\c3ccccc3[N+](=O)[O-])c(=O)n12)Nc1cc(Cl)c(Cl)cc1Cl | 49.3 µM (inactive) | 54 µM (inactive) | 47.1 µM (inactive) | 43.2 µM (inactive) | 18.3 µM (inactive) | 25.2 µM (inactive) |  | 21.8 µM (inactive)
CCC1(CN(C)C)CC/C(=C\c2ccc(OC)c(OC)c2)C1=O (stereo unspecified) | 99.8 µM (inactive) | 51.9 µM (inactive) | > 100 µM (inactive) | > 100 µM (inactive) | > 100 µM (inactive) | > 80.7 µM (inactive) |  | > 92 µM (inactive)
Nc1ccccc1S(=O)(=O)N(CC(=O)O)c1ccccc1 |  | > 100 µM (inactive) | > 100 µM (inactive) | > 100 µM (inactive) | > 100 µM (inactive) | > 100 µM (inactive) |  | > 100 µM (inactive)
